Bridge positions count the residues as written; N and C are the ends. Square brackets hold non-standard residues; d marks the D form. Peptide text beside a SMILES is read from it. Dab = NCC[C@H](N)C(=O)O
How the values were obtained:
[1] = tested on: Acinetobacter baumannii (Ab) MDR and clinical isolates; experiment: Susceptibility testing (MIC, CLSI M7-A10) of antibiotics with SPR741; format: cell-based; details: for order of potentiation of the antibiotics by SPR741: 17 Ab isolates, Mueller-Hinton broth-II with 0, 2 or 8 μg/mL SPR741
Experimental: (§1) Assays were performed against 25 Escherichia coli (Ec), 25 Klebsiella pneumoniae (Kp), and 17 Acinetobacter baumannii (Ab) MDR and clinical isolates, in Mueller-Hinton broth-II (cation adjusted) containing 0, 2 or 8 μg/mL SPR741. The minimum inhibitory concentration (MIC) was defined as the lowest concentration of antibiotic required to inhibit visible bacterial growth. MIC values were determined for each antibiotic/SPR741 combination and maximum reductions in MIC of the antibiotic in the combination were determined.

[2] = tested on: Escherichia coli (Ec) MDR and clinical isolates; experiment: as above; format: cell-based; details: for order of potentiation of the antibiotics by SPR741: 25 Ec isolates, Mueller-Hinton broth-II with 0, 2 or 8 μg/mL SPR741
Experimental: as §1

[3] = tested on: Klebsiella pneumoniae (Kp) MDR and clinical isolates; experiment: as above; format: cell-based; details: for order of potentiation of the antibiotics by SPR741: 25 Kp isolates, Mueller-Hinton broth-II with 0, 2 or 8 μg/mL SPR741
Experimental: as §1

[4] = Minimum bactericidal concentration of combinations in the presence of 5% surfactant (Survanta); format: cell-based; details: in combination with SPR741; with or without 5% Survanta
Experimental: (§2) Efficacy was assessed in checkerboard assays. The minimum inhibitory concentration (MIC) of SPR741, antibiotics, and combinations thereof was defined as the lowest concentration that inhibited growth of Ec ATCC 25922, Ab NCTC 12156 and Kp ATCC 43816. Ec BW25113, ΔtolC and ΔacrA were used to assess the contribution of the multi drug efflux pump AcrAB-TolC to susceptibility to the combinations. Interactions were assessed by calculating fractional inhibitory concentration indices (FICI) for each combination in which the MIC differed from compounds in isolation. Interactions were defined as: FICI>4, antagonism; 0.5-4, no interaction; <0.5, synergy. The minimum bactericidal concentration of combinations in the presence of 5% surfactant (Survanta) was also determined.

[5] = tested on: Ec BW25113, ΔtolC and ΔacrA; experiment: Contribution of efflux pump AcrAB-TolC to susceptibility to the combinations; format: cell-based, Escherichia coli
Experimental: as §2

Gram negative bacteria = details: previously shown; cited from earlier work
[6] = Kp isolates, in combination with SPR741

Row | SMILES | order of potentiation of the antibiotics by SPR741 [1] | order of potentiation of the antibiotics by SPR741 [2] | order of potentiation of the antibiotics by SPR741 [3] | other results
1 | CC[C@H]1OC(=O)[C@H](C)[C@@H](O[C@H]2C[C@@](C)(OC)[C@@H](O)[C@H](C)O2)[C@H](C)[C@@H](O[C@@H]2O[C@H](C)C[C@H](N(C)C)[C@H]2O)[C@](C)(O)C[C@@H](C)CN(C)[C@H](C)[C@@H](O)[C@]1(C)O [AZ, azithromycin] | FA>RIF>CLR>RET>MEM>AZ>AZT>MUP | RIF>MUP=FA>AZ=RET>AZT>MEM=CLR | RET>RIF=AZ=CLR>MUP>MEM=FA>AZT | –
2 | CC[C@H]1OC(=O)[C@H](C)[C@@H](O[C@H]2C[C@@](C)(OC)[C@@H](O)[C@H](C)O2)[C@H](C)[C@@H](O[C@@H]2O[C@H](C)C[C@H](N(C)C)[C@H]2O)[C@](C)(OC)C[C@@H](C)C(=O)[C@H](C)[C@@H](O)[C@]1(C)O [CLR, clarithromycin] | FA>RIF>CLR>RET>MEM>AZ>AZT>MUP | RIF>MUP=FA>AZ=RET>AZT>MEM=CLR | RET>RIF=AZ=CLR>MUP>MEM=FA>AZT | bactericidal activity (minimum bactericidal concentration) of the combination [4]: bactericidal at concentrations similar to the MIC irrespective of the presence of Survanta
3 | C=C[C@]1(C)C[C@@H](OC(=O)CS[C@@H]2C[C@H]3CC[C@@H](C2)N3C)[C@]2(C)[C@H](C)CC[C@]3(CCC(=O)[C@H]32)[C@@H](C)[C@@H]1O [RET, retapamulin] | FA>RIF>CLR>RET>MEM>AZ>AZT>MUP | RIF>MUP=FA>AZ=RET>AZT>MEM=CLR | RET>RIF=AZ=CLR>MUP>MEM=FA>AZT | MIC of antibiotic in the combination [3, 6]: 4 µg/mL; MIC reduction [3, 6]: 32 fold; MIC of antibiotic alone ([3]; Kp isolates, without SPR741): 128 µg/mL
4 | C[C@@H](O)[C@H]1C(=O)N2C(C(=O)O)=C(S[C@@H]3CN[C@H](C(=O)N(C)C)C3)[C@H](C)[C@H]12 [MEM, meropenem] | FA>RIF>CLR>RET>MEM>AZ>AZT>MUP | RIF>MUP=FA>AZ=RET>AZT>MEM=CLR | RET>RIF=AZ=CLR>MUP>MEM=FA>AZT | –
5 | CC(=O)O[C@H]1C[C@@]2(C)[C@@H](C[C@@H](O)[C@H]3[C@@]4(C)CC[C@@H](O)[C@@H](C)[C@@H]4CC[C@@]32C)/C1=C(\CCC=C(C)C)C(=O)O [FA, fusidic acid] | FA>RIF>CLR>RET>MEM>AZ>AZT>MUP | RIF>MUP=FA>AZ=RET>AZT>MEM=CLR | RET>RIF=AZ=CLR>MUP>MEM=FA>AZT | –
6 | CO[C@H]1/C=C/O[C@@]2(C)Oc3c(C)c(O)c4c(O)c(c(/C=N/N5CCN(C)CC5)c(O)c4c3C2=O)NC(=O)/C(C)=C\C=C\[C@H](C)[C@H](O)[C@@H](C)[C@@H](O)[C@@H](C)[C@H](OC(C)=O)[C@@H]1C [RIF, rifampicin] | – | – | – | maximum MIC reduction ([2]; Ec isolates, in combination with SPR741): > 2000 fold; MIC of antibiotic alone ([2]; Ec isolates, without SPR741): > 128 µg/mL
7 | C[C@H]1[C@H](NC(=O)/C(=N\OC(C)(C)C(=O)O)c2csc(N)n2)C(=O)N1S(=O)(=O)O [AZT, aztreonam] | FA>RIF>CLR>RET>MEM>AZ>AZT>MUP | RIF>MUP=FA>AZ=RET>AZT>MEM=CLR | – | –
8 | C/C(=C\C(=O)OCCCCCCCCC(=O)O)C[C@@H]1OC[C@H](C[C@@H]2O[C@H]2[C@@H](C)[C@H](C)O)[C@@H](O)[C@H]1O [MUP, mupirocin] | FA>RIF>CLR>RET>MEM>AZ>AZT>MUP | RIF>MUP=FA>AZ=RET>AZT>MEM=CLR | RET>RIF=AZ=CLR>MUP>MEM=FA>AZT | –
9 | CC(=O)N[C@H](C(=O)N[C@H](CO)C(=O)N[C@H]1CCNC(=O)[C@H]([C@@H](C)O)NC(=O)[C@H](CCN)NC(=O)[C@H](CCN)NC(=O)[C@H](CC(C)C)NC(=O)[C@@H](Cc2ccccc2)NC(=O)[C@H](CCN)NC1=O)[C@@H](C)O [SPR741, Acetyl-Thr-dSer-cy[Dab-Dab-dPhe-Leu-Dab-Dab-Thr]] (Ac-T[dS][Dab][Dab][dF]L[Dab][Dab]T; lactam 3-C) | – | – | – | effect of SPR741 on MIC of antibiotics ([1]; MDR isolates of Ab): effectively reduced the MIC of currently utilized antibiotics; effect of SPR741 on MIC of antibiotics ([2]; MDR isolates of Ec): effectively reduced the MIC of currently utilized antibiotics; effect of SPR741 on MIC of antibiotics ([3]; MDR isolates of Kp): effectively reduced the MIC of currently utilized antibiotics; potentiation of antibiotics that are AcrAB-TolC substrates [5]: able to potentiate antibiotics that are substrates of AcrAB-TolC; sensitisation of bacteria to antibiotics (Gram negative bacteria): increase the sensitivity of certain bacteria to Mupirocin, Azithromycin, Fusidic Acid, and Vancomycin

— patent US20190209645A1, “POTENTIATION OF ANTIBIOTIC ACTIVITY BY A NOVEL CATIONIC PEPTIDE, SPR741” (priority 2016, published 2019)
